From patent US8551937B2, “Peptide having an extending action for half-life of object peptide in plasma” (priority 2008, dated 2013) come the findings set out here.

One may read the half-life as the time in which the quantity being followed falls by half.

Where a SMILES comes first, the peptide text is derived from it.

A short description of one data set: Motilin immunoreactivity concentration in plasma, half-life after intravenous administration (Example 8). As to conditions: male, SD, rat, in vivo, iv, 10 nmol/kg. The method, then: The experiment was carried out using rats into which polyethylene tube (PE-50 manufactured by Clay Adams) was inserted into thigh artery under an anesthetized condition with Nembutal. As to a test system, male SD strain rats (Nippon Charles River) of 7 weeks age were used where one group comprised 3 rats. Human motilin or a derivative thereof in a dose of 10 nmol/kg was administered into tail vein of the rat and the blood before the administration and until 60 minutes after the administration was periodically collected by a polyethylene tube inserted into the thigh artery. To the collected blood were added EDTA (manufactured by Dojin Laboratories) and aprotinin (manufactured by Bayer) as a stabilizer and an anti-coagulant, respectively and the plasma was separated therefrom by centrifugal separation. Motilin immunoreactivity concentration in plasma was measured by a competitive radioimmunoassay (RIA) (FIG. 8). At that time, a rabbit polyclonal antibody (#870623) which specifically recognizes the amino acid numbers 1 to 12 of native motilin shown by SEQ ID No: 102 was used as an antibody and, as a labeled compound, ^125I-[Tyr^7] human motilin was used.
For the compound `CC[C@H](C)[C@H](NC(=O)[C@@H]1CCCN1C(=O)[C@@H](NC(=O)[C@@H](N)Cc1ccccc1)C(C)C)C(=O)N[C@@H](Cc1ccccc1)C(=O)N[C@H](C(=O)N[C@@H](Cc1ccc(O)cc1)C(=O)NCC(=O)N[C@@H](CCC(=O)O)C(=O)N[C@@H](CC(C)C)C(=O)N[C@@H](CCC(N)=O)C(=O)N[C@@H](CCCNC(=N)N)C(=O)N[C@H](C(=O)N[C@@H](CCC(N)=O)C(=O)N[C@@H](CCC(N)=O)C(=O)N[C@@H](CCCNC(=N)N)C(=O)N[C@@H](CCCCN)C(=O)N[C@@H](CCC(=O)O)C(=O)N[C@@H](CO)C(=O)NCC(=O)N[C@@H](CCCCN)C(=O)N[C@@H](CCCCN)C(=O)N1CCC[C@H]1C(=O)N1CCC[C@H]1C(=O)N[C@@H](C)C(=O)N[C@@H](CCCCN)C(=O)N[C@@H](CC(C)C)C(=O)N[C@@H](CCC(N)=O)C(=O)N1CCC[C@H]1C(=O)N[C@@H](CCCNC(=N)N)C(=O)O)C(C)C)[C@@H](C)O` [Chimeric motilin (I)(MG-i19G)] (H-FVPIFTYGELQRVQQRKESGKKPPAKLQPR-OH; N-terminus and C-terminus assumed), the half-life came out at 11.6 min.
`CC[C@H](C)[C@H](NC(=O)[C@@H]1CCCN1C(=O)[C@@H](NC(=O)[C@@H](N)Cc1ccccc1)C(C)C)C(=O)N[C@@H](Cc1ccccc1)C(=O)N[C@H](C(=O)N[C@@H](Cc1ccc(O)cc1)C(=O)NCC(=O)N[C@@H](CCC(=O)O)C(=O)N[C@@H](CC(C)C)C(=O)N[C@@H](CCC(N)=O)C(=O)N[C@@H](CCCNC(=N)N)C(=O)N[C@H](C(=O)N[C@@H](CCC(N)=O)C(=O)N[C@@H](CCC(N)=O)C(=O)N[C@@H](CCCNC(=N)N)C(=O)N[C@@H](CCCCN)C(=O)NCC(=O)NCC(=O)N[C@@H](CCC(=O)O)C(=O)N[C@@H](CO)C(=O)N[C@@H](CCCCN)C(=O)N[C@@H](CCCCN)C(=O)N1CCC[C@H]1C(=O)N1CCC[C@H]1C(=O)N[C@@H](C)C(=O)N[C@@H](CCCCN)C(=O)N[C@@H](CC(C)C)C(=O)N[C@@H](CCC(N)=O)C(=O)N1CCC[C@H]1C(=O)N[C@@H](CCCNC(=N)N)C(=O)O)C(C)C)[C@@H](C)O` [Chimeric motilin (II)(MG-i17G2)] (H-FVPIFTYGELQRVQQRKGGESKKPPAKLQPR-OH; N-terminus and C-terminus assumed) came in with a half-life of 11.5 min. The half-life values of the last two compounds are within 1.5-fold of each other.
`CC[C@H](C)[C@H](NC(=O)[C@@H]1CCCN1C(=O)[C@@H](NC(=O)[C@@H](N)Cc1ccccc1)C(C)C)C(=O)N[C@@H](Cc1ccccc1)C(=O)N[C@H](C(=O)N[C@@H](Cc1ccc(O)cc1)C(=O)NCC(=O)N[C@@H](CCC(=O)O)C(=O)N[C@@H](CC(C)C)C(=O)N[C@@H](CCC(N)=O)C(=O)N[C@@H](CCCNC(=N)N)C(=O)N[C@H](C(=O)N[C@@H](CCC(N)=O)C(=O)N[C@@H](CCC(N)=O)C(=O)N[C@@H](CCCNC(=N)N)C(=O)N[C@@H](CCCCN)C(=O)NCC(=O)NCC(=O)N[C@@H](CCC(=O)O)C(=O)N[C@@H](CO)C(=O)NCC(=O)N[C@@H](CCCCN)C(=O)N[C@@H](CCCCN)C(=O)N1CCC[C@H]1C(=O)N1CCC[C@H]1C(=O)N[C@@H](C)C(=O)N[C@@H](CCCCN)C(=O)N[C@@H](CC(C)C)C(=O)N[C@@H](CCC(N)=O)C(=O)N1CCC[C@H]1C(=O)N[C@@H](CCCNC(=N)N)C(=O)O)C(C)C)[C@@H](C)O` [Chimeric motilin (III) (MG-i17G2-19iG)] (H-FVPIFTYGELQRVQQRKGGESGKKPPAKLQPR-OH; N-terminus and C-terminus assumed) displayed a half-life of 10.7 min.
On to `CC[C@H](C)[C@H](NC(=O)[C@H](CCSC)NC(=O)[C@H](CCCCN)NC(=O)[C@H](CCCCN)NC(=O)[C@H](CO)NC(=O)[C@H](CCC(=O)O)NC(=O)[C@H](CCCCN)NC(=O)[C@H](CCCNC(=N)N)NC(=O)[C@H](CCC(N)=O)NC(=O)[C@H](CCC(N)=O)NC(=O)[C@@H](NC(=O)[C@H](CCCNC(=N)N)NC(=O)[C@H](CCC(N)=O)NC(=O)[C@H](CC(C)C)NC(=O)[C@H](CCC(=O)O)NC(=O)CNC(=O)[C@H](Cc1ccc(O)cc1)NC(=O)[C@@H](NC(=O)[C@H](Cc1ccccc1)NC(=O)[C@@H](NC(=O)[C@@H]1CCCN1C(=O)[C@@H](NC(=O)[C@@H](N)Cc1ccccc1)C(C)C)[C@@H](C)CC)[C@@H](C)O)C(C)C)C(=O)N[C@H](C(=O)N[C@H](C(=O)N[C@@H](CCCNC(=N)N)C(=O)O)[C@@H](C)CC)[C@@H](C)O` [Chimeric motilin (IX)(MG-dPPS)] (H-FVPIFTYGELQRVQQRKESKKMITIR-OH; N-terminus and C-terminus assumed), for which the half-life was found to be 4.39 min.
For the compound `CC[C@H](C)[C@H](NC(=O)[C@@H]1CCCN1C(=O)[C@@H](NC(=O)[C@@H](N)Cc1ccccc1)C(C)C)C(=O)N[C@@H](Cc1ccccc1)C(=O)N[C@H](C(=O)N[C@@H](Cc1ccc(O)cc1)C(=O)NCC(=O)N[C@@H](CCC(=O)O)C(=O)N[C@@H](CC(C)C)C(=O)N[C@@H](CCC(N)=O)C(=O)N[C@@H](CCCNC(=N)N)C(=O)N[C@H](C(=O)N[C@@H](CCC(N)=O)C(=O)N[C@@H](CCC(N)=O)C(=O)N[C@@H](CCCNC(=N)N)C(=O)N[C@@H](CCCCN)C(=O)N[C@@H](CCC(=O)O)C(=O)N[C@@H](CCCCN)C(=O)N[C@@H](CCCCN)C(=O)N1CCC[C@H]1C(=O)N1CCC[C@H]1C(=O)N[C@@H](C)C(=O)N[C@@H](CCCCN)C(=O)N[C@@H](CC(C)C)C(=O)N[C@@H](CCC(N)=O)C(=O)N1CCC[C@H]1C(=O)N[C@@H](CCCNC(=N)N)C(=O)O)C(C)C)[C@@H](C)O` [Chimeric motilin (N)(MG-dS)] (H-FVPIFTYGELQRVQQRKEKKPPAKLQPR-OH; N-terminus and C-terminus assumed), the half-life stood at 9.12 min. Compared with the last compound, the half-life is about 2.1-fold higher.
As for `CC[C@H](C)[C@H](NC(=O)[C@@H]1CCCN1C(=O)[C@@H](NC(=O)[C@@H](N)Cc1ccccc1)C(C)C)C(=O)N[C@@H](Cc1ccccc1)C(=O)N[C@H](C(=O)N[C@@H](Cc1ccc(O)cc1)C(=O)NCC(=O)N[C@@H](CCC(=O)O)C(=O)N[C@@H](CC(C)C)C(=O)N[C@@H](CCC(N)=O)C(=O)N[C@@H](CCCNC(=N)N)C(=O)N[C@H](C(=O)N[C@@H](CCC(N)=O)C(=O)N[C@@H](CCC(N)=O)C(=O)N[C@@H](CCCNC(=N)N)C(=O)N[C@@H](CCCCN)C(=O)N[C@@H](CCC(=O)O)C(=O)N[C@@H](Cc1ccccc1)C(=O)N[C@@H](CCCCN)C(=O)N[C@@H](CCCCN)C(=O)N1CCC[C@H]1C(=O)N1CCC[C@H]1C(=O)N[C@@H](C)C(=O)N[C@@H](CCCCN)C(=O)N[C@@H](CC(C)C)C(=O)N[C@@H](CCC(N)=O)C(=O)N1CCC[C@H]1C(=O)N[C@@H](CCCNC(=N)N)C(=O)O)C(C)C)[C@@H](C)O` [Chimeric motilin (O)(MG-18S/F)] (H-FVPIFTYGELQRVQQRKEFKKPPAKLQPR-OH; N-terminus and C-terminus assumed), the half-life was found to be 7.73 min.
In turn, `CC[C@H](C)[C@H](NC(=O)[C@@H]1CCCN1C(=O)[C@@H](NC(=O)[C@@H](N)Cc1ccccc1)C(C)C)C(=O)N[C@@H](Cc1ccccc1)C(=O)N[C@H](C(=O)N[C@@H](Cc1ccc(O)cc1)C(=O)NCC(=O)N[C@@H](CCC(=O)O)C(=O)N[C@@H](CC(C)C)C(=O)N[C@@H](CCC(N)=O)C(=O)N[C@@H](CCCNC(=N)N)C(=O)N[C@H](C(=O)N[C@@H](CCC(N)=O)C(=O)N[C@@H](CCC(N)=O)C(=O)N[C@@H](CCCNC(=N)N)C(=O)N[C@@H](CCCCN)C(=O)N[C@@H](CCC(=O)O)C(=O)N[C@H](C(=O)N[C@@H](CCCCN)C(=O)N[C@@H](CCCCN)C(=O)N1CCC[C@H]1C(=O)N1CCC[C@H]1C(=O)N[C@@H](C)C(=O)N[C@@H](CCCCN)C(=O)N[C@@H](CC(C)C)C(=O)N[C@@H](CCC(N)=O)C(=O)N1CCC[C@H]1C(=O)N[C@@H](CCCNC(=N)N)C(=O)O)[C@@H](C)O)C(C)C)[C@@H](C)O` [Chimeric motilin (P)(MG-18S/T)] (H-FVPIFTYGELQRVQQRKETKKPPAKLQPR-OH; N-terminus and C-terminus assumed) showed a half-life of 9.67 min.
In turn, `CC[C@H](C)[C@H](NC(=O)[C@@H]1CCCN1C(=O)[C@@H](NC(=O)[C@@H](N)Cc1ccccc1)C(C)C)C(=O)N[C@@H](Cc1ccccc1)C(=O)N[C@H](C(=O)N[C@@H](Cc1ccc(O)cc1)C(=O)NCC(=O)N[C@@H](CCC(=O)O)C(=O)N[C@@H](CC(C)C)C(=O)N[C@@H](CCC(N)=O)C(=O)N[C@@H](CCCNC(=N)N)C(=O)N[C@H](C(=O)N[C@@H](CCC(N)=O)C(=O)N[C@@H](CCC(N)=O)C(=O)N[C@@H](CCCNC(=N)N)C(=O)N[C@@H](CCCCN)C(=O)N[C@@H](CCC(=O)O)C(=O)N1CCC[C@H]1C(=O)N[C@@H](CCCCN)C(=O)N[C@@H](CCCCN)C(=O)N1CCC[C@H]1C(=O)N1CCC[C@H]1C(=O)N[C@@H](C)C(=O)N[C@@H](CCCCN)C(=O)N[C@@H](CC(C)C)C(=O)N[C@@H](CCC(N)=O)C(=O)N1CCC[C@H]1C(=O)N[C@@H](CCCNC(=N)N)C(=O)O)C(C)C)[C@@H](C)O` [Chimeric motilin (Q)(MG-18S/P)] (H-FVPIFTYGELQRVQQRKEPKKPPAKLQPR-OH; N-terminus and C-terminus assumed) yielded a half-life of 9.65 min.

The same data set, now with this note: rat, in vivo, iv, 10 nmol/kg.
Turning to `CC[C@H](C)[C@H](NC(=O)[C@@H]1CCCN1C(=O)[C@@H](NC(=O)[C@@H](N)Cc1ccccc1)C(C)C)C(=O)N[C@@H](Cc1ccccc1)C(=O)N[C@H](C(=O)N[C@@H](Cc1ccc(O)cc1)C(=O)NCC(=O)N[C@@H](CCC(=O)O)C(=O)N[C@@H](CC(C)C)C(=O)N[C@@H](CCC(N)=O)C(=O)N[C@@H](CCCNC(=N)N)C(=O)N[C@H](C(=O)N[C@@H](CCC(N)=O)C(=O)N[C@@H](CCC(N)=O)C(=O)N[C@@H](CCCNC(=N)N)C(=O)N[C@@H](CCCCN)C(=O)N[C@@H](CCC(=O)O)C(=O)N[C@@H](CO)C(=O)N[C@@H](CCCCN)C(=O)N[C@@H](CCCCN)C(=O)N[C@@H](C)C(=O)N[C@@H](CCCCN)C(=O)N[C@@H](CC(C)C)C(=O)N[C@@H](CCC(N)=O)C(=O)N1CCC[C@H]1C(=O)N[C@@H](CCCNC(=N)N)C(=O)O)C(C)C)[C@@H](C)O` [Chimeric motilin (IV)(MG-dPP)] (H-FVPIFTYGELQRVQQRKESKKAKLQPR-OH; N-terminus and C-terminus assumed), the half-life turned out to be 7.73 min.
